What was measured:
[1] = biological target: T1, Signal transducer and activator of transcription 1-alpha/beta (Homo sapiens, UniProt P42224); test: Inhibition of IFNgamma-induced STAT1 phosphorylation in human Cal33 cells by Western blot analysis
T1 sequence (P42224 whole entry): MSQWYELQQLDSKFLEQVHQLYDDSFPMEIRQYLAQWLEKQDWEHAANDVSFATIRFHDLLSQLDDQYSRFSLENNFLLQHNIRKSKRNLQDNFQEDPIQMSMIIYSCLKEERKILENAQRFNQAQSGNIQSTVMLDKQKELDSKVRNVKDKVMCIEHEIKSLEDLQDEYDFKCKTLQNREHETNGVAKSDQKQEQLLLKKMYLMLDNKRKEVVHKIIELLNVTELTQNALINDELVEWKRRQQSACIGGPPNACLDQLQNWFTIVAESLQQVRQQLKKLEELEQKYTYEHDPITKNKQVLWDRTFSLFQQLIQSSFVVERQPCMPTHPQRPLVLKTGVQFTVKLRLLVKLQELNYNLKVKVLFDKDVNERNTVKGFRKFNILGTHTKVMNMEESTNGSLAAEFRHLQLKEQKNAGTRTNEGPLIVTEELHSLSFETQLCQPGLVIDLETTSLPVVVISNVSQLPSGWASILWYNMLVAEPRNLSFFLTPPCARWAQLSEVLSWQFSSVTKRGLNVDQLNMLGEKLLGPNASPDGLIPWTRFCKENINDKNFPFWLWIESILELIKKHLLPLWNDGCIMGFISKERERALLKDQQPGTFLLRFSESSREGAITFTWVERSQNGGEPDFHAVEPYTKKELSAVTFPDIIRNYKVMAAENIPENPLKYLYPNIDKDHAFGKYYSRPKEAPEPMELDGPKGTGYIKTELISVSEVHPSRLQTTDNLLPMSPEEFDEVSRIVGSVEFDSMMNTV

[2] = Inhibition of IL-6-induced STAT3 phosphorylation in human Cal33 cells assessed as nuclear translocation by Western blot analysis

| SMILES | IC50 [1] | IC50 [2] |
| --- | --- | --- |
| Cc1[nH]c(Nc2nc(C)c3cc4c(cc3n2)OCO4)nc(=O)c1Cc1ccccc1 | > 50 µM | > 50 µM |
| Cc1cc(C)c2nc(Nc3nc(=O)cc(-c4ccccc4)[nH]3)nc(C)c2c1 | > 50 µM | – |
| CCOc1ccc2nc(Nc3nc(=O)cc(-c4ccccc4)[nH]3)nc(C)c2c1 | > 50 µM | – |
| Cc1nc(NCCc2c[nH]c3ccccc23)nc2ccccc12 | > 30 µM | > 30 µM |
| Cc1nc(Nc2ccccc2)nc2ccccc12 | > 30 µM | – |
| CCOc1ccc2nc(Nc3nc(=O)c(C)c(C)[nH]3)nc(C)c2c1 | > 50 µM | – |
| Cc1nc(NCCN2CCOCC2)nc2ccccc12 | > 30 µM | > 30 µM |
| Cc1ccc2c(C)nc(Nc3nc(=O)c(C)c(C)[nH]3)nc2c1 | 35.2 µM | – |
| Cc1nc(NCc2ccccc2)nc2ccccc12 | > 30 µM | > 30 µM |
| Cc1nc(NCc2cccc3ccccc23)nc2ccccc12 | > 30 µM | – |
| COc1ccc2nc(Nc3nc(=O)cc(C)[nH]3)nc(C)c2c1 | > 50 µM | 34.9 µM |
| Cc1nc(NC2CCCCC2)nc2ccccc12 | > 30 µM | – |
| Cc1[nH]c(Nc2nc(C)c3cc4c(cc3n2)OCO4)nc(=O)c1C | > 50 µM | > 50 µM |
| COc1ccc2c(C)nc(Nc3nc(C)cc(O)n3)nc2c1 | > 50 µM | – |
| Cc1cc2nc(Nc3nc(=O)c(C)c(C)[nH]3)nc(C)c2cc1C | > 50 µM | 10.4 µM |
| Cc1nc(NCc2ccc3c(c2)OCO3)nc2ccccc12 | > 30 µM | > 30 µM |
| Cc1cc(C)c2nc(Nc3nc(C)c(C)c(O)n3)nc(C)c2c1 | > 50 µM | 6.4 µM |
| COc1ccc2nc(Nc3nc(=O)c(Cc4ccccc4)c(C)[nH]3)nc(C)c2c1 | 50 µM | – |
| C=CCc1c(C)[nH]c(Nc2nc(C)c3cc(C)cc(C)c3n2)nc1=O | > 50 µM | – |
| Cc1cc(=O)nc(Nc2nc(C)c3cc4c(cc3n2)OCO4)[nH]1 | > 50 µM | > 50 µM |
| CCOc1ccc2nc(Nc3nc(=O)cc(C)[nH]3)nc(C)c2c1 | > 50 µM | – |
| CCOc1ccc2nc(NC3=NC(C)=CC(C)(C)N3)nc(C)c2c1 | > 50 µM | – |
| CCOc1ccc2c(C)nc(NC3=NC(C)=CC(C)(C)N3)nc2c1 [DNDI1417388] | > 50 µM | – |
| Cc1ccc2c(C)nc(Nc3nc(=O)cc(C)[nH]3)nc2c1 | 39.7 µM | – |
| CC1=CC(C)(C)N=C(Nc2nc(C)c3cc(C)ccc3n2)N1 | > 50 µM | – |
| CC1=CC(C)(C)N=C(Nc2nc(C)c3cc(C)cc(C)c3n2)N1 [US9211296, Table 7, Compd: 9] | 5.9 µM | – |
| Cc1nc(Nc2ccccn2)nc2ccccc12 | > 30 µM | – |
| Cc1ccc(CNc2nc(C)c3ccccc3n2)o1 | > 30 µM | – |
| Cc1cc(=O)nc(Nc2nc(C)c3cc(C)c(C)cc3n2)[nH]1 | > 50 µM | – |
| Cc1nc(Nc2nc(=O)cc(-c3ccccc3)[nH]2)nc2cc3c(cc12)OCO3 | > 50 µM | 13 µM |

— BindingDB's records for doi:10.1016/j.bmcl.2014.09.001 (University of Pittsburgh, 2014)
